# Data from patent US20220331348A1, “METHOD OF PREPARING PENTACYCLIC TRITERPENOID SAPONINS AND DRUG COMPOSITION” (CHINA PHARMACEUTICAL UNIVERSITY, priority 2019, published 2022).
# How the values were obtained:
# [1] = test system: TNBS modeled Crohn's disease model mice; test: 2,4,6-trinitrobenzene sulfonic acid (TNBS) modeled Crohn's disease model mice; type: in vivo, mouse
# Description: C57BL/6 male mice with 6-8 weeks old were selected and randomly divided into a control group, a mode group, a treatment group and a positive control group. Expect for the control group, after the mice in the rest groups anesthetized with isoflurane, hoses were carefully inserted into colons of the mice from anuses, and […] of 1.5% 2,4,6-trinitrobenzene sulfonic acid (TNBS) was slowly injected. Before the hoses were pulled out, the mice were placed upside down for 1 min. First intragastric administration was conducted at the day of enema treatment, the mice in the control group and the model group were orally administered with carboxymethyl cellulose sodium as a placebo, the mice in the treatment group were orally administered with the ziyuglycoside II (purchased from Shanghai Boka Chemistry Technology Co., Ltd) (with a dosage of 5 mg/kg), and the mice in the positive drug group were orally administered with 5-aminosalicylic acid as a clinical drug (5-ASA, purchased from Shanghai Sangon Biological Engineering Co., Ltd) (with a dosage of 100 mg/kg). Administration was continuously conducted for 7 days. In the administration process, the states of the mice were observed every day, and weight changes of the mice were recorded.
# Differences in weight change of the mice in various groups were compared, from which, ziyuglycoside II has the treatment effect on the 2, 4, 6-trinitrobenzene sulfonic acid (TNBS) modeled Crohn's disease model mice.
# The above mice were sacrificed by cervical dislocation at day 8, colon tissues were harvested, lengths of the colon tissues were measured for statistical summary, and differences in colon length of various groups were compared, from which, the ziyuglycoside II has significant treatment effect on the Crohn's disease model mice. […] 10 mg of proximal rectum segments of the colon tissues of the above mice were selected, PBS was added for homogenization, and centrifugation was conducted for taking a supernate. The supernate was subjected to ELISA detection, and protein quantification was conducted for inflammatory factors TNF- and IL-1. […] Myeloperoxidase (MPO) is an enzyme specific to neutrophils, and the amount of the neutrophils in the intestinal tracts may be reflected by detecting the MPO level. 5 mg of proximal rectum segments of the colon tissues of the above mice were selected, PBS was added for homogenization, and the content of the MPO in a homogenate was detected with a MPO kit (purchased from Nanjing Jiancheng Bioengineering Institute). […] Therefore, the ziyuglycoside II is expected to be useful for preparing the drug for preventing or treating the inflammatory bowel diseases such as the Crohn's disease.
# [2] = test system: ulcerative colitis model mice induced by DSS; test: Dextran sulphate sodium salt (DSS) induced ulcerative colitis model mice; type: in vivo, mouse
# Description: C57BL/6 male mice with 6-8 weeks old were selected; a control group was fed with purified water; and a model group, a treatment group and a positive control group were fed with purified water containing 2% dextran sulphate sodium salt (DSS) (36000-50000 M.Wt) for 7 days and then with the purified water for 3 days, and drug intervention was conducted at the same time. The mice in the control group and the model group were orally administered with carboxymethyl cellulose sodium as a placebo, the mice in the treatment group were orally administered with the ziyuglycoside II (purchased from Shanghai Boka Chemistry Technology Co., Ltd) (with a dosage of 5 mg/kg), and the mice in the positive control group were orally administered with 5-aminosalicylic acid as a clinical drug (5-ASA, purchased from Shanghai Sangon Biological Engineering Co., Ltd) (with a dosage of 100 mg/kg). In the administration process, weight changes, feces characters and hematochezia conditions of the mice were observed and recorded every day and were scored, and disease activity indexes were calculated (Disease activity index, DAI).
# A scoring rule and a calculation method were as follows: DAT=(weight score+diarrhea score+occult blood score)/3, wherein weight score: 0 (weight gained or unchanged), 1 (weight lost by 1-5%), 2 (weight lost by 6-10%), 3 (weight lost by 11-15%), 4 (weight lost by 15% or above); diarrhea score: 0 (normal feces), 2 (soft feces), 4 (feces sticking anuses or diarrhea); and occult blood score: 0 (negative occult blood), 2 (positive occult blood), and 4 (visible bleeding). Comparing differences in DAI of various groups, it can be known that the ziyuglycoside II has significant prevention and treatment effects on ulcerative colitis of the mice modeled by the dextran sulphate sodium salt (DSS).
# The above mice were sacrificed by cervical dislocation at day 11, colon tissues were harvested, lengths of the colon tissues were measured for statistical summary, and differences in colon length of various groups were compared, from which, the ziyuglycoside II has significant prevention and treatment effect on the ulcerative colitis model mice.
# Middle segments, with lengths of about 1 cm, of the colon tissues of the above mice were selected, soaked in a formalin solution for fixing overnight, embedded with paraffin and sliced, and the slices were subjected to HE staining. […] Particularly, compared with the positive drug group, the ziyuglycoside II has the advantage of maintaining a thickness of a muscular layer.
# 10 mg of proximal rectum segments of the colon tissues of the above mice were selected, PBS was added for homogenization, and centrifugation was conducted for taking a supernate. The supernate was subjected to ELISA detection, and protein quantification was conducted for inflammatory factors TNF-α and IL-lb.
# 10 mg of colon tissues of the above mice were selected for detection of ROS therein.
# When the ulcerative colitis occurs, the inflammatory factors may destruct tight junction between intestinal tracts, and destruction of the tight junction enables functions of mucosal barriers to be lost and accelerates development of the diseases. 5 mg of colon tissues of the above mice were selected for qPCR analysis. […] This hints that the ziyuglycoside II further has the efficacy of increasing the expression level of the tight junction and then protecting a structure of each colon. […] Therefore, the ziyuglycoside II is expected to be useful for preparing the drug for preventing or treating the inflammatory bowel diseases such as the ulcerative colitis.
# [3] = test system: AMPK in Huh-7 cells; test: Activation activity on AMPK in Huh-7 cells (Western Blot); type: cell-based; details: 10 μM, 12 h, Western Blot gray scale, relative to DMSO = 1
# [4] = 5 mg/kg orally, vs model group (FIG. 14 A)
# [5] = DSS mice, 5 mg/kg orally, vs model group (FIG. 12 A)
# [6] = DSS mice, 5 mg/kg, vs model group (FIG. 12 C)
smiles,measurement,setting,value
"C[C@@H]1CC[C@]2(C(=O)O)CC[C@]3(C)C(=CC[C@@H]4[C@@]5(C)CC[C@H](O[C@@H]6OC[C@H](O)[C@H](O)[C@H]6O)C(C)(C)[C@@H]5CC[C@]43C)[C@@H]2[C@]1(C)O [(XIII), ziyuglycoside II]",content of the MPO in colon tissues,[1]; 5 mg/kg (FIG. 14 B),significantly lowered
same,drop scope of weight loss,"[1]; 5 mg/kg orally, 7 days, vs model group (FIG. 13 A)",obviously lower than that of the model group
same,colon lengths,"[1]; 5 mg/kg orally, day 8, vs model group (FIG. 13 B)",significantly larger than those of the model group
same,expression level of inflammatory factor IL-1 in colon tissue (ELISA),[1]; [4],significantly lower than those of the model group
same,expression level of inflammatory factor TNF- in colon tissue (ELISA),[1]; [4],significantly lower than those of the model group
same,colon length of the treatment group compared with the control group,[1]; dose not given,nearly no difference
same,expression level of inflammatory factor IL-1β,"[1]; dose not given, vs model group",significantly lower than those of the model group
same,expression level of inflammatory factor TNF-α,"[1]; dose not given, vs model group",significantly lower than those of the model group
same,content of the ROS in colon tissues,"[2]; DSS mice, 5 mg/kg (FIG. 12 B)",significantly lowered
same,colon histopathology (HE staining),"[2]; DSS mice, 5 mg/kg orally (FIG. 11)",infiltration of the inflammatory cells is reduced
same,colon lengths,"[2]; DSS mice, 5 mg/kg orally, day 11, vs model group (FIG. 10 B)",significantly larger than those of the model group
same,DAI scores (disease activity index),"[2]; DSS mice, 5 mg/kg orally, vs model group (FIG. 10 A)",obviously lower than that of the model group
same,expression level of inflammatory factor IL-1 in colon tissue (ELISA),[2]; [5],significantly lower than those of the model group
same,expression level of inflammatory factor TNF-α in colon tissue (ELISA),[2]; [5],significantly lower than those of the model group
same,expression level of Claudin-1 in colon (qPCR),[2]; [6],significantly increased
same,expression level of Occludin in colon (qPCR),[2]; [6],significantly increased
same,expression level of ZO-1 in colon (qPCR),[2]; [6],significantly increased
same,DAI scores of the treatment group,"[2]; DSS-induced mice, dose not given, vs model group",obviously lower than those of the model group
same,pAMPK/AMPK ratio,[3],2.51
